The values below come from patent US20100151004A1, “MODULATION OF DRUG SENSITIVITY” (UNIVERSITY OF MEDICINE AND DENTISTRY OF NEW JERSEY, priority 2007, published 2010).

SMILES strings stand for the structures. “Also recorded” adds a separate entry of the source.

Data set [1] relates to UMPK expression in HCT-8/4hFU cells. As to the kind of experiment: UMPK mRNA (Q-RT-PCR) and protein (Western blotting) after DAC exposure in cultured cells. As to conditions: low-dose DAC for 24 h. It counts as cell-based, human. How it is done: (§1) Cells (1-5×10^6) were trypsinized, washed twice with PBS and kept frozen in −80° C. until used. Cell pellets or powdered tumors (vide infra) were thawed and resuspended in 0.5 ml of RIPA buffer (50 mM Tris-HCl buffer pH 7.4, 3 mM sodium fluoride and 4 mM DTT) supplemented with protease inhibitors. Samples were sonicated (2×20 s, 60% power) on ice and centrifuged for 20 min at 20,000 rpm. […] of lysate was loaded onto 10% SDS-PAGE gel and after transfer to nitrocellulose probed with anti-UMPK polyclonal antibody (1:1000) for 2 hours (gift of Dr Y. C. Cheng, Yale University) and secondary ant-rabbit antibody (1:5000) for 1 hour (Sigma St Louis, Mo., USA) or anti-α-tubulin (1:10000) for 1 hour (Sigma, St Louis, Mo., USA) and anti-mouse antibody (1:2000) for 0.5 h (Santa Cruz, Calif., USA) as a control.
(§2) Total RNA was extracted from 1-5×10^6 cells or powdered tumors using Trizol Reagent (Invitrogen, Carlsbad, Calif., USA) and run on 1% folmaldehyde-agarose gel to assess the quality of the RNA. […] Delta delta Ct method was used to calculate relative fold change in mRNA level (Livak K J, Schmittgen T D. Analysis of relative gene expression data using real-time quantitative PCR and the 2(−Delta Delta C(T)) Method. Methods 2001 December; 25(4):402-8). […]

The subject of another data set is HCT-8/P tumor. As to the kind of experiment: Colorectal cancer xenograft model, tumor volume. It counts as in vivo, mice. The protocol: (§3) Two independent experiments were performed and animals received either 1 or 2 courses of treatment (1 or 2 weeks) followed by an additional week of observation. […] Prior to the experiment tumors were grounded to a powder in LN2. Following the tumor harvest or if tumor diameter is greater than 1 cm, or greater than 15% weight loss occurred the animals were euthanized. All experiments were performed according to the protocol approved by The Institutional Animal Care and Use Committee at RWJMS. […] Gels were quantitated using ChemiDoc XRS machine and Quantity One 1-D analysis software (BioRad, Hercules, Calif., USA).

For the next data set, the system named is HCT-8/4hFU tumor. Nature of the data set: Colorectal cancer xenograft model, tumor volume. It counts as in vivo, mice. The following applies: for tumor response (tumor volume): one course, DAC 3×0.5 mg/kg i.p., 5-FU 1×50 mg/kg i.p.; for tumor response (tumor growth): two courses, DAC 3×0.5 mg/kg/course i.p., 5-FU 1×50 mg/kg/course i.p. How it is done:
as §3

Data set [2] relates to UMPK mRNA in HCT-8/4hFU tumors. Nature of the data set: UMPK mRNA in xenograft tumors after DAC treatment (Q-RT-PCR). It counts as in vivo, mice. How it is done: (§4) Total RNA was extracted from 1-5×10^6 cells or powdered tumors using Trizol Reagent (Invitrogen, Carlsbad, Calif., USA) and run on 1% folmaldehyde-agarose gel to assess the quality of the RNA. Gene specific primers and fluorescent-labeled probe (FAM and TAMRA) were designed using Primer Express Software from ABI (Applied Biosystems, Foster City, Calif., USA). 50 ng of RNA was amplified in one-step RT-PCR reaction (Applied Biosystems, Foster City, Calif., USA) using TaqMan Real-Time PCR machine (7000 SDS). 18SrRNA (FAM) (Applied Biosystems, Foster City, Calif., USA) or β-actin (FAM-TAMRA) was used to normalize the results. Delta delta Ct method was used to calculate relative fold change in mRNA level (Livak K J, Schmittgen T D. Analysis of relative gene expression data using real-time quantitative PCR and the 2(−Delta Delta C(T)) Method. Methods 2001 December; 25(4):402-8). The sequence of UMPK forward primer is 5′-AAGAAGGAAAGATTGTACCAGTTGAGA-3′ (SEQ ID NO: 7), reverse primer 5′-GGAAACCCATCAATCAAGAATTTATT-3′ (SEQ ID NO: 8), and probe 5-FAM-AGAGGGAAATGGATCAGACAATGGCTGC-TAMRA-3′ (SEQ ID NO: 9).
(§5) HCT-8/P or HCT-8/4hFU cells (2.5×10^6) were injected subcutaneously into SKID nu/nu mice (Taconic, Germantown, N.Y., USA). When tumors were palpable animals were randomized into 4 groups (5-10 animals per group) and treated with DAC (Tuesday, Wednesday, Thursday, 0.5 mg/kg, i.p.), or 5-FU (Friday, 50 mg/kg, i.p.), or DAC & 5-FU, or PBS as a control. Measurements of tumor size and animal weight were performed every 3-4 days. Two independent experiments were performed and animals received either 1 or 2 courses of treatment (1 or 2 weeks) followed by an additional week of observation. In order to assay UMPK induction in tumors, animals from DAC alone, and DAC & 5-FU groups received additional course of DAC treatment towards the end of experiment. 24 hours after the third dose of DAC was administered animals were anesthetized, and tumors harvested, washed in PBS and flash frozen in LN2. Prior to the experiment tumors were grounded to a powder in LN2. Following the tumor harvest or if tumor diameter is greater than 1 cm, or greater than 15% weight loss occurred the animals were euthanized. All experiments were performed according to the protocol approved by The Institutional Animal Care and Use Committee at RWJMS.

The next data set has as its system UMPK in HCT-8/P tumors. The data set is described as above. The class given is in vivo, mice. The following applies: HCT-8/P group. How it is done:
as §4, §5

Another data set has as its system HCT-8/P cells. As to the kind of experiment: MTS cytotoxicity assay, 4 h bolus drug exposure. (In general: Tetrazolium dyes change colour on reduction, which living cells bring about.)
The test system of data set [3] is UMPK expression in HCT-8/P cells. As to the kind of experiment: UMPK expression after DAC exposure in cultured cells. The class given is cell-based, human. As to conditions: low-dose DAC for 24 h. The protocol: as §1, §2
Data set [4] concerns UMPK promoter and first exon CpG sites in HCT-8/4hFU cells. As to the kind of experiment: Pyro Q-CpG analysis of methylation. As to conditions: HCT-8/4hFU + 0.5 μM DAC for 24 h. The class given is cell-based, human.
Experimental: DNA was extracted from tumors or cells using standard phenol-chlorophorm-isoamyl alcohol extraction (Invitrogen, Carlsbad, Calif., USA). 2 μg of sample DNA or 1 μg of control DNA was bisulfite modified using EZ DNA Methylation Kit (Zymo Research, Orange, Calif., USA). 1 ul out of 10 ul of post bisulfite modified DNA was used for PCR. Bisulfite treated fetal cell DNA and in vitro methylated human DNA (Chemicon, Millipore, Billerica, Mass.) were used in the assay development and PCR bias testing. The following reagents were mixed together in preparation for the Pyrosequencing reaction: Streptavidin beads 2 μl, 2× binding buffer 40 μl, PCR product 10 μl, water 28 μl. The assay was performed by EpigenDx (Worcester, Mass., USA) using PSQHS 96 System. Methylation of 42 CpG sites was analyzed.
The subject of data set [5] is HCT-8/4hFU cells. As to the kind of experiment: MTS cytotoxicity assay, 4 h bolus drug exposure. The class given is cell-based, human. An excerpt: Cancer Res 1992 Apr. […] Louis, Mo., USA).
In data set [6] the test system is HCT-8/4hFU cells. Nature of the data set: MTS cytotoxicity assay, continuous 5-FU exposure (4 days). It counts as cell-based, human. How it is done: Number of viable cells was determined by MTS assay.
In the next data set the test system is colorectal cancer. The following applies: patients, typical clinical response; cited from earlier work.
[7] abbreviates: one course, DAC 3×0.5 mg/kg i.p., 5-FU 1×50 mg/kg i.p.
[8] abbreviates: two courses, DAC 3×0.5 mg/kg/course i.p., 5-FU 1×50 mg/kg/course i.p.
The mark [9] stands for this setting: DAC 0.0005 μM-0.5 μM, 24 h exposure.

For the compound `Nc1ncn([C@H]2C[C@H](O)[C@@H](CO)O2)c(=O)n1` [DAC, 5-Azadeoxycytidine], the “UMPK mRNA as well as protein levels” value in data set [1] was “dose dependent increase”. Moreover, the “tumor response (tumor growth)” value in the data set on HCT-8/P tumor (setting [7]) is given as “most significant delay in the tumor growth”; with HCT-8/P tumor (setting [8]), “most significant effect”; in the data set with HCT-8/4hFU tumor, “No significant response”. In addition, in the data set on HCT-8/4hFU tumor, the “tumor response (tumor volume)” value is reported as “resistant”. Also, the “increase in UMPK mRNA as compared to untreated tumor” value in data set [2] (after one course of DAC (3×0.5 mg/kg)) is recorded as 4 fold; in data set [2] (after two and three weeks of DAC treatment), at most 20 fold. The “average increase of UMPK in tumors of the group of animals” value in data set [2] (animals of the two-course experiment, relative to untreated HCT-8/4hFU tumors) is given as 8.5 fold. Further, the “increase of UMPK after DAC treatment” value with UMPK in HCT-8/P tumors is “No increase”. In addition, the cell kill entry in the data set with HCT-8/P cells (setting [9]) and in the data set with HCT-8/4hFU cells [5] (setting [9]) was “less than 20%” each time. In addition, the “effect of DAC on sensitivity of HCT-8/P cells to 5-FU or 5-FUR” value in the data set with HCT-8/P cells (DAC 24 h pretreatment, then 5-FU or 5-FUR 4 h) is “Much less of an effect; also recorded: do not show increased sensitivity”. In addition, the UMPK expression result in data set [3] is reported as “No increase”. In addition, the “Mean methylation across 36 CpG sites” value in data set [4] amounted to 2.74. For the same compound, in the data set with HCT-8/4hFU cells [5] (0.02 μM DAC 24 h pretreatment), the “restoration of sensitivity of HCT-8/4hFU cells to that seen in HCT-8/P cells” value is given as “able to restore the sensitivity”. Also, the “effect of DAC pretreatment on sensitivity to bolus 5-FU” value with HCT-8/4hFU cells [5] (DAC 24 h pretreatment, then 5-FU 4 h) is “makes HCT-8/4hFU cells sensitive”. For the same compound, the “effect of DAC pretreatment on sensitivity to 5-FUR” value with HCT-8/4hFU cells [5] (DAC 24 h pretreatment, then 5-FUR 4 h) is recorded as “makes HCT-8/4hFU cells sensitive”.
With `O=c1[nH]cc(F)c(=O)[nH]1` [5-FU, 5-Fluorouracil], the “sensitivity to continuous exposure to 5-FU, HCT-8/4hFU versus HCT-8/P” value in the data set with HCT-8/4hFU cells [6] was “equally sensitive”. Moreover, the “tumor response (tumor growth)” value in the data set on HCT-8/P tumor (setting [7]) is on record as “responded”; with HCT-8/P tumor (setting [8]), “responded”; in the data set with HCT-8/4hFU tumor, “partial response”. Besides, the “tumor response (tumor volume)” value in the data set on HCT-8/4hFU tumor is recorded as “resistant”. For the same compound, in the data set with colorectal cancer, the response rate result is on record as “less than 30%”. For the same compound, the “fold resistance to bolus 5-FU, HCT-8/4hFU versus HCT-8/P” value in the data set on HCT-8/4hFU cells [5] (bolus 4 h exposure, cell viability assay) was 3-4 fold.
Turning to `O=c1[nH]c(=O)n([C@@H]2O[C@H](CO)[C@@H](O)[C@H]2O)cc1F` [5-FUR, 5-fluorouridine], the “increase in the IC50 value, HCT-8/4hFU as compared to HCT-8/P cells” value in the data set on HCT-8/4hFU cells [5] (5-FUR 4 h exposure) was at most 10 fold.
